Data published in patent US20060211632A1, “PXR agonists for cardiovascular disease” (priority 2005, published 2006).

Columns and labels:
[1] = tested on: serum ApoA1; assay: Serum apoA1 in wild-type mice after 7 days of treatment (immuno-turbidimetric assay); type: in vivo, wild-type (WT; C57BL/6) mice; conditions: for apoA1 relative to controls (methylcellulose): gavage once daily 7 days, 100 mg/kg, gemfibrozil 20 mg/Kg, troglitazone 6 and 60 mg/Kg, Dunnett's procedure
Description: (§1) PXR-KO mice were treated with either rifampicin, gemfibrozil, or CDD 3540. In all cases methylcellulose was used as a vehicle control. These chemicals were administered, as a suspension in 1% methylcellulose (vehicle) by gavage using a 20 G—1½-inch feeding needle. The animals were treated in groups of three and for each treated group two mice were treated simultaneously with methylcellulose (vehicle). Each treatment was given once daily in the morning for seven days. The doses were 100 mg/kg for CTZ, rifampicin, CDD 3540, phenobarbital and TCPOBOP, 6 mg/kg and 60 mg/Kg for troglitazone and 0.175 mg/Kg and 1.75 mg/Kg for hyperforin, and for gemfibrozil 20 mg/Kg and 100 mg/Kg. The volume of vehicle used to suspend the treatment drugs and the dose of vehicle for control group was 7 ml/kg.
(§2) After the completion of the treatment (i.e. on day 8), blood samples were collected from the tail of the animals for serum HDL-C and ApoA1 determination. Blood samples were allowed to clot for 2 hours, centrifuged at 14,000 rpm for 20 minutes, and serum was collected. The serum samples were then stored at −20° C. for up to 24 hours before quantitative determination of HDL-C and ApoA1.
An immuno-turbidimetric assay was developed for quantitative determination of ApoA1 in mouse serum. Commercially available stock solution of purified mouse ApoA1 (79 mg/dl) was used to construct a standard curve. A potassium phosphate buffer solution was prepared by diluting 1 ml of monobasic 1.0 M potassium phosphate buffer to 10 ml with distilled water, and the pH of the solution was adjusted to 7.2 using 0.1 N NaOH. […] A dilution of 1:4000 of the stock concentration was used per the manufacturer's recommendation. The standard curve was prepared with 0, 39.5, 79, and 158 mg/dl of mouse apoA1. 1 μl of mouse plasma was mixed with 3 μl of distilled water for quantitation of apoA1. 500 μl of buffer solution was added to 4 μl of total sample volume prepared as described. After 5 minutes, 100 μl of antibody solution was added. The mixture was allowed to incubate at 37° C. for 3 minutes. Absorbance was measured at 580 nm using a Beckmann DU640 Spectrophotometer. Each sample or standard was analyzed twice, and the average of both readings was used. Serum ApoA1 concentrations from control mice were also compared with the normal ApoA1 levels in mice, obtained from the literature, to affirm the validity of the assay procedure.
Statistical treatments for HDL-C and apoA1 in mice were identical. For each of these variables, three basic analyses were performed, one for WT mice, one for PXR-KOs, and one for the two groups combined. Statistical analysis was performed in SAS (SAS Release 8, 1999, SAS Institute Inc., Cary, N.C.). In all cases the primary method of comparing treatments was ANOVA. Prior to performing this analysis, both variables were normalized by the geometric mean of their associated controls. Normality and homoscedasticity (constancy of variance across groups) were evaluated, with an appropriate data transformation (logarithmic) applied if necessary. These properties were checked before (to evaluate the need for transformation) and after transformation (to confirm the adequacy of the transformation) using normal probability plots and Levene's test for equality of variances (Snedecor et al., Statistical Methods, 8th Edition, Iowa State University Press, pp. 59-62 and 252-253, 1989). […]

[2] = tested on: hepatic apoA1 mRNA; assay: Time course of hepatic apoA1 mRNA in rats (Northern blot); type: in vivo, rat; conditions: 50 mg/Kg by gavage once daily, beginning after treatment day 2 and constant thereafter, p<0.05 vs vehicle controls
Description: Hepatic apoA1 mRNA was measured by Northern Blot hybridization to total hepatic RNA with oligonucleotides for apoprotein A1 and elongation factor-1α (EF-1α). The procedure was similar to that described in the Slama et al. reference for hepatic CYP3A mRNA. The following oligonucleotide sequence used for rat apoA1 mRNA was based on the nucleotide sequence for rat apoA1 described by Haddad et al. (“Linkage, evolution and expression of the rat apolipoprotein A-1, C-III, and A-IV genes,” J Biol Chem 1986; 261: 13268-13277): 3′ CTACGTCAGTTCCTGTCGCCGTCTCTGATACACAGGGTCAAACTTAGGAGGTGAAACCCG 5′.
[…] were dosed with CDD 3540 (50 mg/Kg) by gavage once daily for 8 days, and three rats were treated with methylcellulose (vehicle controls). Groups of three treated rats were sacrificed at 6 and 12 h after the first dose, 12 and 24 h after the second dose, and at 12 hours after doses 4-8, respectively. Hepatic apoA1 mRNA was quantitated by northern blot analysis as described above.
Temporal differences in hepatic apoA1 mRNA in rats were evaluated by a simple Analysis of Variance (ANOVA) and a Tukey's post-hoc test.

[3] = tested on: HDL-C; assay: HDL-C in rats after 8 days of treatment; type: in vivo, rat
Description: (§3) Treatments were administered by gavage once daily in the morning for eight (8) days.
(§4) Whole blood was collected by cardiac puncture under CO2 anesthesia 8 hours following ethosuximide infusion. Animals were then sacrificed using CO2 and cervical dislocation. Livers were excised and used for analysis of erythromycin demethylase activity (as described in the Slama et al. reference) and hepatic apoA1 mRNA. Plasma was separated from whole blood anticoagulated with 5 mM EDTA at room temperature using a bench top centrifuge (5000 rpm) for 5 minutes. Plasma was stored unpreserved at −20° C. for up to 5 days, and subsequently analyzed for ethosuximide and for HDL-C. Concentrations of ethosuximide and HDL-C were measured in plasma by fluorescence polarization immunoassay (fpia) using a TDx analyzer (Abbott Laboratories, Irving, Tex.) and commercially available reagents (Abbott Laboratories, Abbott Park, Ill.).

[4] = tested on: serum HDL-C; assay: Serum HDL-C in wild-type mice after 7 days of treatment; type: in vivo, wild-type (WT; C57BL/6) mice; conditions: for HDL-C relative to controls (methylcellulose): gavage once daily 7 days, 100 mg/kg, gemfibrozil 20 mg/kg, troglitazone 6 and 60 mg/Kg, Dunnett's procedure
Description: In all cases methylcellulose was used as a vehicle control. These chemicals were administered, as a suspension in 1% methylcellulose (vehicle) by gavage using a 20 G—1½-inch feeding needle. The animals were treated in groups of three and for each treated group two mice were treated simultaneously with methylcellulose (vehicle). Each treatment was given once daily in the morning for seven days. […] The volume of vehicle used to suspend the treatment drugs and the dose of vehicle for control group was 7 ml/kg. Doses were selected based on the results obtained from previous studies in rats except for troglitazone and hyperforin, for which doses were weight-adjusted using estimates of average daily human doses as reference. After the completion of the treatment (i.e. on day 8), blood samples were collected from the tail of the animals for serum HDL-C and ApoA1 determination. Blood samples were allowed to clot for 2 hours, centrifuged at 14,000 rpm for 20 minutes, and serum was collected. The serum samples were then stored at −20° C. for up to 24 hours before quantitative determination of HDL-C and ApoA1. HDL-C was determined quantitatively in the serum using Liquid Direct HDL kits. The kit contained reagent 1, reagent 2, and HDL calibrator. The assay consisted of two steps. […] The peroxide byproduct of this reaction is rendered non-colored via catalase reduction. […] In this second step, the catalase is inhibited, the remaining HDL cholesterol specifically reacts with cholesterol esterase and cholesterol oxidase, and in the presence of peroxidase the peroxide byproduct reacts with 4-aminoantipyrine and HDAOS to form a colored […] dye. Both these reactions were allowed to occur at 37° C. […] Each sample was analyzed twice, and the average of both readings was used. Statistical treatments for HDL-C and apoA1 in mice were identical. For each of these variables, three basic analyses were performed, one for WT mice, one for PXR-KOs, and one for the two groups combined. Statistical analysis was performed in SAS (SAS Release 8, 1999, SAS Institute Inc., Cary, N.C.). In all cases the primary method of comparing treatments was ANOVA. Prior to performing this analysis, both variables were normalized by the geometric mean of their associated controls. Normality and homoscedasticity (constancy of variance across groups) were evaluated, with an appropriate data transformation (logarithmic) applied if necessary. These properties were checked before (to evaluate the need for transformation) and after transformation (to confirm the adequacy of the transformation) using normal probability plots and Levene's test for equality of variances (Snedecor et al., Statistical Methods, 8th Edition, Iowa State University Press, pp. 59-62 and 252-253, 1989). […]

[5] = tested on: hepatic apoA1 mRNA; assay: Hepatic apoA1 mRNA in rats after 8 days of treatment; type: in vivo, rat
Description: as §4, with “Treatments were administered by gavage once daily in the morning for eight (8) days. Whole” for “Whole”, “-20°” for “−20°”, “Ill.). […] Hepatic apoA1 mRNA was measured by Northern Blot hybridization to total hepatic RNA with oligonucleotides for apoprotein A1 and elongation factor-1α (EF-1α). The procedure was similar to that described in the Slama et al. reference for hepatic CYP3A mRNA. […]” for “Ill.).”

[6] = tested on: CYP3A; assay: CYP3A activity in rats (hepatic microsomal EDM activity, ethosuximide clearance); type: in vivo, rat
Description: as §3
Ethosuximide was prepared as a 3.5% (w/v) solution dissolved in normal saline. Ethosuximide was administered in a dose of 35 mg/kg via tail vein injection 24 hours following the eighth pretreatment dose.
as §4

[7] = tested on: serum ApoA1; assay: Serum apoA1 in PXR-KO mice after 7 days of treatment; type: in vivo; conditions: for apoA1 relative to control: gavage once daily 7 days, gemfibrozil 20 mg/kg, others 100 mg/kg
Description: as §1, §2
An immuno-turbidimetric assay was developed for quantitative determination of ApoA1 in mouse serum. Commercially available stock solution of purified mouse ApoA1 (79 mg/dl) was used to construct a standard curve. A potassium phosphate buffer solution was prepared by diluting 1 ml of monobasic 1.0 M potassium phosphate buffer to 10 ml with distilled water, and the pH of the solution was adjusted to 7.2 using 0.1 N NaOH. […] 1 μl of mouse plasma was mixed with 3 μl of distilled water for quantitation of apoA1. […] Absorbance was measured at 580 nm using a Beckmann DU640 Spectrophotometer. Each sample or standard was analyzed twice, and the average of both readings was used. […]
Statistical treatments for HDL-C and apoA1 in mice were identical. […] Normality and homoscedasticity (constancy of variance across groups) were evaluated, with an appropriate data transformation (logarithmic) applied if necessary. […]

SMILES | increase in apoA1 relative to controls ([1]; 100 mg/kg once daily 7 days) [fold] | apoA1 relative to controls (methylcellulose) [1] | increase in hepatic apoA1 [2] [%] | HDL-C [3] | HDL-C relative to controls (methylcellulose) [4] | apoA1 [5] | CYP3A activity [6] | apoA1 relative to control [7] | dose at peak of the dose-response curve ([1]; apoA1 and HDL-C, declined with higher doses) [mg/kg] | increase in apoA1 relative to control ([7]; gemfibrozil 20 mg/kg once daily 7 days) [fold] | increase in HDL-C ([4]; 100 mg/Kg once daily 7 days)
Fc1ccc(C(c2ccc(F)cc2)(c2ccc(F)cc2)n2ccnc2)cc1 [CDD 3540] | ~3.7 | significantly elevated | ~45 | increase | significantly elevated | increase | increase | neither rifampin nor CDD 3540 elicited significant changes |  |  | 
Clc1cnc(Oc2ccc(Oc3ncc(Cl)cc3Cl)cc2)c(Cl)c1 [TCPOBOP, 1,4-bis[2-(3,5-dichloropyridyloxy)]benzene] |  | did not significantly elevate |  |  | did not significantly elevate |  |  |  |  |  | 
Cc1ccc(C)c(OCCCC(C)(C)C(=O)O)c1 [gemfibrozil] |  | significantly elevated |  |  | significantly elevated |  |  | significantly increase | 20 | ~1.7 | 
CO[C@H]1/C=C/O[C@@]2(C)Oc3c(C)c(O)c4c(O)c(c(/C=N/N5CCN(C)CC5)c(O)c4c3C2=O)NC(=O)/C(C)=C\C=C\[C@H](C)[C@H](O)[C@@H](C)[C@@H](O)[C@@H](C)[C@H](OC(C)=O)[C@@H]1C [rifampin, rifampicin] |  |  |  |  |  |  |  |  |  |  | about 25%
